Results from the supplement of paper PMC10878532, “Sperm Toolbox—A selection of small molecules to study human spermatozoa” (PLOS ONE, 2024).
Structures can show the parent of a compound that is named as a salt.

Columns and labels:
[1] = tested on: human spermatozoa; assay: progressively motile sperm, percent change vs DMSO (capacitating); higher = more of the measured sperm population than DMSO, for viability, fewer PI-positive (dead) cells than DMSO; conditions: incubation time: 30min incubation
[2] = tested on: human spermatozoa; assay: progressively motile sperm, percent change vs DMSO (non-capacitating); higher = more of the measured sperm population than DMSO, for viability, fewer PI-positive (dead) cells than DMSO; extreme values may be limits of the assay
[3] = tested on: human spermatozoa; assay: viability fold change, 1 - (PI-positive fraction / DMSO median); higher = more of the measured sperm population than DMSO, for viability, fewer PI-positive (dead) cells than DMSO; conditions: incubation time: 3h, non-capacitating
[4] = tested on: human spermatozoa; assay: acrosome-reacted (PNA+) sperm after agonist cocktail, percent change vs DMSO (capacitating); higher = more of the measured sperm population than DMSO, for viability, fewer PI-positive (dead) cells than DMSO; conditions: incubation time: 3h, capacitating + agonist cocktail 1h
[5] = tested on: HepG2; assay: HepG2 toxicity (resazurin), effect normalised to DMSO (DMSO = 0); higher = more features changed / larger toxic effect; conditions: incubation time: 70h incubation
[6] = tested on: HeLa; assay: HeLa toxicity: nuclei-count effect normalised to DMSO (DMSO = 0); higher = more features changed / larger toxic effect; conditions: incubation time: 24h incubation
[7] = tested on: HeLa; assay: Cell Painting percent induction (share of features beyond 2 z-scores vs DMSO); higher = more features changed / larger toxic effect; extreme values may be limits of the assay; conditions: incubation time: 24h incubation
[8] = tested on: human spermatozoa; assay: change in acrosome-reacted (PNA+) sperm vs DMSO, no agonist (capacitating); higher = more of the measured sperm population than DMSO, for viability, fewer PI-positive (dead) cells than DMSO; conditions: incubation time: 3h
[9] = tested on: human spermatozoa; assay: total motile sperm, percent change vs DMSO (non-capacitating); higher = more of the measured sperm population than DMSO, for viability, fewer PI-positive (dead) cells than DMSO
[10] = tested on: human spermatozoa; assay: hyperactivated motile sperm, percent change vs DMSO (capacitating); higher = more of the measured sperm population than DMSO, for viability, fewer PI-positive (dead) cells than DMSO; conditions: incubation time: 30min incubation
[11] = incubation time: 10min incubation, 9.99 µM
[12] = incubation time: 10min incubation, 29.9 µM
[13] = incubation time: 3h incubation, 9.99 µM
[14] = incubation time: 3h incubation, 29.9 µM
[15] = incubation time: 6h incubation, 9.99 µM
[16] = incubation time: 6h incubation, 29.9 µM
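For progressively motile sperm, percent change vs DMSO (non-capacitating) in this document: pooled live human sperm from at least 3 donors, tracked by automated microscopy in 0.5 s time-lapse movies, compounds at 10 and 30 µM, versus median of 16 DMSO wells per plate.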
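For total motile sperm, percent change vs DMSO (non-capacitating) in this document: sperm pooled from at least 3 donors, tracked in 0.5 s time-lapse movies by automated microscopy after 10 min, 3 h or 6 h with compound at 10 or 30 µM.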

SMILES | progressively motile sperm ([1]; 9.99 µM) [%] | progressively motile sperm ([1]; 29.9 µM) [%] | progressively motile sperm [2, 11] [%] | progressively motile sperm [2, 12] [%] | progressively motile sperm [2, 13] [%] | progressively motile sperm [2, 14] [%] | progressively motile sperm [2, 15] [%] | progressively motile sperm [2, 16] [%] | viability fold change ([3]; 9.99 µM) | viability fold change ([3]; 29.9 µM) | acrosome-reacted ([4]; 9.99 µM) [%] | acrosome-reacted ([4]; 29.9 µM) [%] | HepG2 toxicity ([5]; 10 µM) [%] | HepG2 toxicity ([5]; 30 µM) [%] | HeLa toxicity: nuclei-count effect normalised ([6]; 9.99 µM) [%] | HeLa toxicity: nuclei-count effect normalised ([6]; 29.9 µM) [%] | Cell Painting percent induction ([7]; 9.99 µM) [%] | Cell Painting percent induction ([7]; 29.9 µM) [%] | change in acrosome-reacted ([8]; 9.99 µM) [%] | change in acrosome-reacted ([8]; 29.9 µM) [%] | total motile sperm [9, 11] [%] | total motile sperm [9, 12] [%] | total motile sperm [9, 13] [%] | total motile sperm [9, 14] [%] | total motile sperm [9, 15] [%] | total motile sperm [9, 16] [%] | hyperactivated motile sperm ([10]; 9.99 µM) [%] | hyperactivated motile sperm ([10]; 29.9 µM) [%]
CCOc1ccc(-c2nc(-c3cccc4c3CCC4NCCO)no2)cc1OCC (configuration not stated) [CYM 5442 hydrchloride] | 3.76 | 6.19 | 15.6 | 3.34 | 40 | 14.5 | 51.9 | 21.7 | -0.289 | -0.544 | 63 | 75.1 | 14.4 | 101 | -0.601 | 18 | 4.97 | 3.13 | 2.58 | 4.61 | 0.362 | -6.08 | 7.62 | -11.7 | 7.81 | -12.3 | 46.2 | 45.7
Nc1nc(Cl)nc2c1ncn2[C@@H]1O[C@H](CO)[C@@H](O)[C@@H]1F [Clofarabine] | 10.5 | 12.9 | 21.7 | 19.3 | 50.7 | 35.6 | 46.2 | 29.9 | -0.45 | -0.516 | 87.1 | 104 | 12.2 | 19.6 | 47.6 | 47.5 | 0.396 | 0.54 | 1.07 | 0.866 | -6.85 | -9.16 | -17.7 | -20.8 | -25.1 | -28.8 | 206 | 262
Clc1ccc(C(OCCN2CCCCC2)c2ccccc2)cc1 (configuration not stated) [Cloperastine hydrochloride] | 5.13 | -14.3 | 7.41 | -9.23 | -87 | -98.1 | -86.3 | -97.8 | -1.96 | -1.7 | -1.44 | -4.86 | 7.17 | 8.06 | 6.68 | 19.6 | 1.84 | 3.64 | 1.21 | 0.462 | 1.61 | 2.24 | -3.5 | -29.1 | -19.1 | -44 | -26.2 | -69.6
CNS(=O)(=O)c1ccccc1Nc1nc(Nc2ccc(C3CCN(C)CC3)cc2OC)ncc1Cl [Compound 19] | -48.6 | -61.5 | -91.3 | -92.3 | -90.1 | -93.7 | -90.5 | -96 | -0.353 | -1.11 | -19.8 | 31.9 | 103 | 103 | 98.9 | 97.1 | 51.7 | 53.2 | 1.02 | 5.53 | -56.4 | -58.2 | -66.7 | -69.7 | -63.1 | -74.1 | -80.3 | -81.6
CCOC(=O)CSc1nc(=O)c(NCC(=O)OC)n[nH]1 [Compound B4] | 3.54 | -5 | 0.38 | -0.636 | 7.69 | -26.4 | 4.42 | -27.1 | -0.743 | -0.817 | 78.6 | 102 | -2.06 | 5.66 | -3.67 | -5.81 | 0 | 0 | 0.981 | 1.58 | -1.27 | -2.9 | -1.69 | -8.87 | -5.02 | -14.2 | 141 | 283
OCCN(CCO)c1nc(N2CCCCC2)c2nc(N(CCO)CCO)nc(N3CCCCC3)c2n1 [Dipyridamole] | 16.4 | 19.4 | 36 | 38.1 | 80.3 | 58.3 | 82.1 | 83.5 | -2.05 | -2.06 | 56.3 | 74.8 | -2.63 | 7.46 | 3.21 | 2 | 0.036 | 0.18 | 1.09 | 1.87 | 0.517 | -2.33 | -2.26 | -16 | -6.57 | -14.4 | 88.9 | 43.9
CCN(CC)C(=S)SSC(=S)N(CC)CC [Disulfiram] | -96.3 | -99.9 | -96.4 | -100 | -100 | -99.9 | -99.3 | -100 | -0.587 | -1.58 | 86.5 | 13 | -2.95 | 20.2 | 16.7 | 49.8 | 0 | 0.576 | 16.4 | 16 | -80.8 | -91.5 | -94.3 | -91.5 | -88.6 | -93.2 | -82.7 | -88.4
COc1ccc2nc([S@@+]([O-])Cc3ncc(C)c(OC)c3C)[nH]c2c1 [Esomeprazole] | 15.2 | 19 | 11.4 | 21.1 | 37 | 43.5 | 50.4 | 35.7 | 0.0722 | -0.272 | 25.4 | 50.1 | -1.96 | 4.42 | -3.81 | -3.61 | 0 | 0 | 0.624 | 1.41 | -4.34 | -3.89 | -8.86 | -9.65 | -8.85 | -15.2 | 72.4 | 123
CC(C)C(C(=O)OC(C#N)c1cccc(Oc2ccccc2)c1)c1ccc(Cl)cc1 (configuration not stated) [Fenvalerate] | -16 | -21.3 | -11.9 | -13.7 | 3.76 | -3.88 | 11.3 | 5.45 | -0.675 | 0.413 | 16 | 11.8 | 6.05 | -6.97 | 8.15 | 4.61 | 0 | 0.036 | 1.05 | 0.945 | -12.2 | -13.5 | -9.13 | -13 | -6.57 | -13.4 | -11.7 | -10.3
